Results: patent publication US20230085307A1, “PYRIDAZINONE COMPOUND AND HERBICIDE” (NISSAN CHEMICAL CORPORATION, priority 2019, published 2023)

What was measured:
late watergrass = assay: Test Example 1: herbicidal activity, application before weed generation under submerged conditions (Table 16, symbol A); format: in vivo, late watergrass (Echinochloa oryzicola); details: amount of applied herbicide 320 g/ha
Summary of the method: (§1)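 Emulsion formulation, water-diluted to set dose, was put onto the flooded surface (4 cm depth, alluvial soil) the same day weeds were sown and 2.5-leaf rice transplanted. After 3 weeks at 25-30 °C under glass, each species was rated 0 (≤5% kill) to 5 (≥90% kill).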

Japanese bulrush = assay: Test Example 1: herbicidal activity, application before weed generation under submerged conditions (Table 16, symbol B); format: in vivo, Japanese bulrush (Schoenoplectus juncoides); details: amount of applied herbicide 320 g/ha
Summary of the method: as §1

oval-leafed pondweed = assay: Test Example 1: herbicidal activity, application before weed generation under submerged conditions (Table 16, symbol C); format: in vivo, oval-leafed pondweed (Monochoria vaginalis); details: amount of applied herbicide 320 g/ha
Summary of the method: as §1

barnyard grass [1] = assay: Test Example 3: herbicidal effect by foliage application, Wagner pot (Table 18, symbol H); format: in vivo, barnyard grass (Echinochloa crus-galli)
Summary of the method: (§2)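 Plants were sown in alluvial soil held under 0.1–0.5 cm standing water and grown 14 days in a greenhouse at 25–30 °C. An emulsifiable formulation, water-diluted to the set dose, was then sprayed onto the foliage, and effects were scored three weeks later using previously defined criteria.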

Chinese sprangletop = assay: Test Example 3: herbicidal effect by foliage application, Wagner pot (Table 18, symbol D); format: in vivo, chinese sprangletop (Leptochloa chinensis)
Summary of the method: as §2

rice flat sedge = assay: Test Example 3: herbicidal effect by foliage application, Wagner pot (Table 18, symbol E); format: in vivo, rice flat sedge (Cyperus iria)
Summary of the method: as §2

southern crabgrass [2] = assay: Test Example 4: herbicidal effect by soil treatment (Table 19, symbol F); format: in vivo, southern crabgrass (Digitaria ciliaris); details: amount of applied herbicide 320 g/ha
Summary of the method: (§3)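 Scoring uses the grading scale of an earlier test, three weeks post-application. Treatment consists of spraying a diluted emulsion formulation across the surface of sterilized diluvial soil in which seeds are buried near 1.5 cm deep; boxes are kept in a greenhouse between 25° C. and 30° C.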

green foxtail [3] = assay: Test Example 4: herbicidal effect by soil treatment (Table 19, symbol G); format: in vivo, green foxtail (Setaria viridis); details: amount of applied herbicide 320 g/ha
Summary of the method: as §3

barnyard grass [4] = assay: Test Example 4: herbicidal effect by soil treatment (Table 19, symbol H); format: in vivo, barnyard grass (Echinochloa crus-galli); details: amount of applied herbicide 320 g/ha
Summary of the method: as §3

wild oat [5] = assay: Test Example 4: herbicidal effect by soil treatment (Table 19, symbol I); format: in vivo, wild oat (Avena fatua); details: amount of applied herbicide 320 g/ha
Summary of the method: as §3

Italian ryegrass [6] = assay: Test Example 4: herbicidal effect by soil treatment (Table 19, symbol K); format: in vivo, Italian ryegrass (Lolium multiflorum); details: amount of applied herbicide 320 g/ha
Summary of the method: as §3

windgrass [7] = assay: Test Example 4: herbicidal effect by soil treatment (Table 19, symbol L); format: in vivo, windgrass (Apera spica-venti); details: amount of applied herbicide 320 g/ha
Summary of the method: as §3

velvetleaf [8] = assay: Test Example 4: herbicidal effect by soil treatment (Table 19, symbol M); format: in vivo, velvetleaf (Abutilon theophrasti); details: amount of applied herbicide 320 g/ha
Summary of the method: as §3

redroot pigweed [9] = assay: Test Example 4: herbicidal effect by soil treatment (Table 19, symbol N); format: in vivo, redroot pigweed (Amaranthus retroflexus); details: amount of applied herbicide 320 g/ha
Summary of the method: as §3

lambsquarters [10] = assay: Test Example 4: herbicidal effect by soil treatment (Table 19, symbol O); format: in vivo, lambsquarters (Chenopodium album); details: amount of applied herbicide 320 g/ha
Summary of the method: as §3

chickweed [11] = assay: Test Example 4: herbicidal effect by soil treatment (Table 19, symbol P); format: in vivo, common chickweed (Stellaria media); details: amount of applied herbicide 320 g/ha
Summary of the method: as §3

persian speedwell [12] = assay: Test Example 4: herbicidal effect by soil treatment (Table 19, symbol R); format: in vivo, Persian speedwell (Veronica persica); details: amount of applied herbicide 320 g/ha
Summary of the method: as §3

southern crabgrass [13] = assay: Test Example 5: herbicidal effect by foliage application, plastic box (Table 20, symbol F); format: in vivo, southern crabgrass (Digitaria ciliaris)
Summary of the method: (§4)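 Post-emergence foliar test in sterilized diluvial soil. Compound applied as water-diluted emulsion at a predetermined rate to 14-day-old plants; evaluation at three weeks.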

green foxtail [14] = assay: Test Example 5: herbicidal effect by foliage application, plastic box (Table 20, symbol G); format: in vivo, green foxtail (Setaria viridis)
Summary of the method: as §4

barnyard grass [15] = assay: Test Example 5: herbicidal effect by foliage application, plastic box (Table 20, symbol H); format: in vivo, barnyard grass (Echinochloa crus-galli)
Summary of the method: as §4

wild oat [16] = assay: Test Example 5: herbicidal effect by foliage application, plastic box (Table 20, symbol I); format: in vivo, wild oat (Avena fatua)
Summary of the method: as §4

blackgrass = assay: Test Example 5: herbicidal effect by foliage application, plastic box (Table 20, symbol J); format: in vivo, blackgrass (Alopecurus myosuroides)
Summary of the method: as §4

Italian ryegrass [17] = assay: Test Example 5: herbicidal effect by foliage application, plastic box (Table 20, symbol K); format: in vivo, Italian ryegrass (Lolium multiflorum)
Summary of the method: as §4

windgrass [18] = assay: Test Example 5: herbicidal effect by foliage application, plastic box (Table 20, symbol L); format: in vivo, windgrass (Apera spica-venti)
Summary of the method: as §4

velvetleaf [19] = assay: Test Example 5: herbicidal effect by foliage application, plastic box (Table 20, symbol M); format: in vivo, velvetleaf (Abutilon theophrasti)
Summary of the method: as §4

redroot pigweed [20] = assay: Test Example 5: herbicidal effect by foliage application, plastic box (Table 20, symbol N); format: in vivo, redroot pigweed (Amaranthus retroflexus)
Summary of the method: as §4

lambsquarters [21] = assay: Test Example 5: herbicidal effect by foliage application, plastic box (Table 20, symbol O); format: in vivo, lambsquarters (Chenopodium album)
Summary of the method: as §4

chickweed [22] = assay: Test Example 5: herbicidal effect by foliage application, plastic box (Table 20, symbol P); format: in vivo, common chickweed (Stellaria media)
Summary of the method: as §4

persian speedwell [23] = assay: Test Example 5: herbicidal effect by foliage application, plastic box (Table 20, symbol R); format: in vivo, Persian speedwell (Veronica persica)
Summary of the method: as §4

[24] = amount of applied herbicide 320 g/ha
[25] = foliage application, 320 g/ha, three weeks after application
[26] = amount of applied herbicide 320 g/ha, foliage application after 14-day growth, evaluated three weeks after application

Cc1nn(C)c(=O)c(-c2c(-c3ccc(N(C)C)cc3)sc3ccc(F)cc23)c1O [2-425]
Herbicidal effect, A: late watergrass (late watergrass): 3 (Herbicidal rate of 40% or more and less than 70%) | Herbicidal effect, B: Japanese bulrush (Japanese bulrush): 3 (Herbicidal rate of 40% or more and less than 70%) | Herbicidal effect, C: oval-leafed pondweed (oval-leafed pondweed): 0 (Herbicidal rate of 5% or less (almost no effect)) | herbicidal effect on H: barnyard grass (barnyard grass [1]; [24]): 4 (Herbicidal rate of 70% or more and less than 90%) | herbicidal effect on D: Chinese sprangletop (Chinese sprangletop; [24]): 2 (Herbicidal rate of 20% or more and less than 40%) | herbicidal effect on E: rice flat sedge (rice flat sedge; [24]): 5 (Herbicidal rate of 90% or more (almost completely withered)) | herbicidal effect, F: southern crabgrass (southern crabgrass [2]): 0 (Herbicidal rate of 5% or less (almost no effect)) | herbicidal effect, G: green foxtail (green foxtail [3]): 0 (Herbicidal rate of 5% or less (almost no effect)) | herbicidal effect, H: barnyard grass (barnyard grass [4]): 0 (Herbicidal rate of 5% or less (almost no effect)) | herbicidal effect, I: wild oat (wild oat [5]): 0 (Herbicidal rate of 5% or less (almost no effect)) | herbicidal effect, K: Italian ryegrass (Italian ryegrass [6]): 2 (Herbicidal rate of 20% or more and less than 40%) | herbicidal effect, L: windgrass (windgrass [7]): 0 (Herbicidal rate of 5% or less (almost no effect)) | herbicidal effect, M: velvetleaf (velvetleaf [8]): 0 (Herbicidal rate of 5% or less (almost no effect)) | herbicidal effect, N: redroot pigweed (redroot pigweed [9]): 5 (Herbicidal rate of 90% or more (almost completely withered)) | herbicidal effect, O: lambsquarters (lambsquarters [10]): 4 (Herbicidal rate of 70% or more and less than 90%) | herbicidal effect, P: chickweed (chickweed [11]): 3 (Herbicidal rate of 40% or more and less than 70%) | herbicidal effect, R: persian speedwell (persian speedwell [12]): 5 (Herbicidal rate of 90% or more (almost completely withered)) | F: southern crabgrass, herbicidal effect grade (southern crabgrass [13]; [25]): 5 (Herbicidal rate of 90% or more (almost completely withered)) | G: green foxtail, herbicidal effect grade (green foxtail [14]; [25]): 5 (Herbicidal rate of 90% or more (almost completely withered)) | H: barnyard grass, herbicidal effect grade (barnyard grass [15]; [25]): 4 (Herbicidal rate of 70% or more and less than 90%) | I: wild oat, herbicidal effect grade (wild oat [16]; [25]): 4 (Herbicidal rate of 70% or more and less than 90%) | J: blackgrass, herbicidal effect grade (blackgrass; [25]): 4 (Herbicidal rate of 70% or more and less than 90%) | K: Italian ryegrass, herbicidal effect grade (Italian ryegrass [17]; [25]): 4 (Herbicidal rate of 70% or more and less than 90%) | L: windgrass, herbicidal effect grade (windgrass [18]; [25]): 5 (Herbicidal rate of 90% or more (almost completely withered)) | M: velvetleaf, herbicidal effect grade (velvetleaf [19]; [25]): 5 (Herbicidal rate of 90% or more (almost completely withered)) | N: redroot pigweed, herbicidal effect grade (redroot pigweed [20]; [25]): 5 (Herbicidal rate of 90% or more (almost completely withered)) | O: lambsquarters, herbicidal effect grade (lambsquarters [21]; [25]): 5 (Herbicidal rate of 90% or more (almost completely withered)) | P: chickweed, herbicidal effect grade (chickweed [22]; [25]): 5 (Herbicidal rate of 90% or more (almost completely withered)) | R: persian speedwell, herbicidal effect grade (persian speedwell [23]; [25]): 5 (Herbicidal rate of 90% or more (almost completely withered))

COCOc1ccccc1-c1sc2c(Cl)cccc2c1-c1c(O)c(C)nn(C)c1=O [4-083]
Herbicidal effect, A: late watergrass (late watergrass): 3 (Herbicidal rate of 40% or more and less than 70%) | Herbicidal effect, B: Japanese bulrush (Japanese bulrush): 0 (Herbicidal rate of 5% or less (almost no effect)) | Herbicidal effect, C: oval-leafed pondweed (oval-leafed pondweed): 0 (Herbicidal rate of 5% or less (almost no effect)) | herbicidal effect on barnyard grass (H) (barnyard grass [1]; 320 g/ha): 5 (Herbicidal rate of 90% or more (almost completely withered)) | herbicidal effect on Chinese sprangletop (D) (Chinese sprangletop; 320 g/ha): 4 (Herbicidal rate of 70% or more and less than 90%) | herbicidal effect on rice flat sedge (E) (rice flat sedge; 320 g/ha): 5 (Herbicidal rate of 90% or more (almost completely withered)) | Herbicidal effect by soil treatment, F: southern crabgrass (southern crabgrass [2]): 0 (Herbicidal rate of 5% or less (almost no effect)) | Herbicidal effect by soil treatment, G: green foxtail (green foxtail [3]): 0 (Herbicidal rate of 5% or less (almost no effect)) | Herbicidal effect by soil treatment, H: barnyard grass (barnyard grass [4]): 1 (Herbicidal rate of 5% or more and less than 20%) | Herbicidal effect by soil treatment, I: wild oat (wild oat [5]): 0 (Herbicidal rate of 5% or less (almost no effect)) | Herbicidal effect by soil treatment, K: Italian ryegrass (Italian ryegrass [6]): 0 (Herbicidal rate of 5% or less (almost no effect)) | Herbicidal effect by soil treatment, L: windgrass (windgrass [7]): 0 (Herbicidal rate of 5% or less (almost no effect)) | Herbicidal effect by soil treatment, M: velvetleaf (velvetleaf [8]): 1 (Herbicidal rate of 5% or more and less than 20%) | Herbicidal effect by soil treatment, N: redroot pigweed (redroot pigweed [9]): 3 (Herbicidal rate of 40% or more and less than 70%) | Herbicidal effect by soil treatment, O: lambsquarters (lambsquarters [10]): 0 (Herbicidal rate of 5% or less (almost no effect)) | Herbicidal effect by soil treatment, P: chickweed (chickweed [11]): 3 (Herbicidal rate of 40% or more and less than 70%) | Herbicidal effect by soil treatment, R: persian speedwell (persian speedwell [12]): 3 (Herbicidal rate of 40% or more and less than 70%) | Herbicidal effect by foliage application, F: southern crabgrass (southern crabgrass [13]; [26]): 3 (Herbicidal rate of 40% or more and less than 70%) | Herbicidal effect by foliage application, G: green foxtail (green foxtail [14]; [26]): 3 (Herbicidal rate of 40% or more and less than 70%) | Herbicidal effect by foliage application, H: barnyard grass (barnyard grass [15]; [26]): 4 (Herbicidal rate of 70% or more and less than 90%) | Herbicidal effect by foliage application, I: wild oat (wild oat [16]; [26]): 0 (Herbicidal rate of 5% or less (almost no effect)) | Herbicidal effect by foliage application, J: blackgrass (blackgrass; [26]): 0 (Herbicidal rate of 5% or less (almost no effect)) | Herbicidal effect by foliage application, K: Italian ryegrass (Italian ryegrass [17]; [26]): 0 (Herbicidal rate of 5% or less (almost no effect)) | Herbicidal effect by foliage application, L: windgrass (windgrass [18]; [26]): 4 (Herbicidal rate of 70% or more and less than 90%) | Herbicidal effect by foliage application, M: velvetleaf (velvetleaf [19]; [26]): 3 (Herbicidal rate of 40% or more and less than 70%) | Herbicidal effect by foliage application, N: redroot pigweed (redroot pigweed [20]; [26]): 1 (Herbicidal rate of 5% or more and less than 20%) | Herbicidal effect by foliage application, O: lambsquarters (lambsquarters [21]; [26]): 1 (Herbicidal rate of 5% or more and less than 20%) | Herbicidal effect by foliage application, P: chickweed (chickweed [22]; [26]): 5 (Herbicidal rate of 90% or more (almost completely withered)) | Herbicidal effect by foliage application, R: persian speedwell (persian speedwell [23]; [26]): 5 (Herbicidal rate of 90% or more (almost completely withered))
